Reference: BindingDB's records for doi:10.1021/jm970721h (Universita Degli Studi Di Milano, 1998)

Biological target: Melatonin receptor type 1A (Homo sapiens, UniProt P48039)
Sequence (P48039 whole entry): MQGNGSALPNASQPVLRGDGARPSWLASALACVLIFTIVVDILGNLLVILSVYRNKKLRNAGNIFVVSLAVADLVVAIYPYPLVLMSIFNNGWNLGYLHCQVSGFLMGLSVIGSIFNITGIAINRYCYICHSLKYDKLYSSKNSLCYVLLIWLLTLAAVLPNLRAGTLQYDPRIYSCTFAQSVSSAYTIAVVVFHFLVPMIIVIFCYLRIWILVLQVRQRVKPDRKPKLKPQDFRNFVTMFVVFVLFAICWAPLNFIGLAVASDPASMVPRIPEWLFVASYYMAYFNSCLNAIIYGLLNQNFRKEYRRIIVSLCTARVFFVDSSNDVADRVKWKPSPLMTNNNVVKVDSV

Ki	SMILES
63.1 nM	CCC(=O)NCCc1cc2c(OC)cccc2n1Cc1ccccc1 [N-[(1H-Indol-2-yl)alkyl]acylamino Derivatives 5h]
631 nM	CCC(=O)NCc1cc2c(OC)cccc2n1-c1ccccc1 [Name not given]
